{"source": "paper PMC3883446", "about": "(Bioorganic & medicinal chemistry letters, 2012)", "key": {"[1]": {"biological_target": "T1, hM1 (Homo sapiens, UniProt P11229)", "T1 sequence (P11229 1-460)": "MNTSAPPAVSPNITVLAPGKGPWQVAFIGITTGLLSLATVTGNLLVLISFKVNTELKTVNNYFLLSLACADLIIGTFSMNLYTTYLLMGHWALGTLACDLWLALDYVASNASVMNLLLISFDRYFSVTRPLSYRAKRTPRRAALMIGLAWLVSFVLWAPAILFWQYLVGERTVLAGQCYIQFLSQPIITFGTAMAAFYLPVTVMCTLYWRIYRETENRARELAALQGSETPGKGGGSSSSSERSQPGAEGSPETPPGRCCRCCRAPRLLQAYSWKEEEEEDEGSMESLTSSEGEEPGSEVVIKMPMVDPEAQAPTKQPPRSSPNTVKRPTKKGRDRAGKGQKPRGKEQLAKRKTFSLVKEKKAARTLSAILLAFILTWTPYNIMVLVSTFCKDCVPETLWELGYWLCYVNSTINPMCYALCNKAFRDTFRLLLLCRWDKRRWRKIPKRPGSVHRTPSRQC", "experiment": "hM1 antagonist potency, calcium mobilization assay", "type": "cell-based", "conditions": "for % ACh activity remaining: at the highest concentration tested (30 μM)"}, "[2]": {"tested_on": "pilocarpine-induced seizures", "conditions": "rodents; cited from earlier work"}, "[3]": {"tested_on": "contextual fear conditioning", "conditions": "at doses that reduced seizures; cited from earlier work"}, "[4]": {"tested_on": "M1 mAChR", "experiment": "equilibrium radioligand binding, [3H]NMS competition", "conditions": "Figure 4A"}, "[5]": {"biological_target": "T2, M1 (Homo sapiens, UniProt P11229)", "T2 sequence (P11229 1-460)": "T1 sequence (P11229 1-460)", "type": "cell-based", "conditions": "antagonism of ACh at M1; mean ± S.E.M. of three experiments in triplicate"}, "[6]": {"experiment": "in vitro hepatic microsome intrinsic clearance", "type": "in vitro ADME, rat"}, "[7]": {"tested_on": "rat (r) M1-5 receptors", "experiment": "calcium mobilization assay, rat M1-5 selectivity", "type": "cell-based", "conditions": "CRCs in the presence of an EC80 concentration of ACh; Figure 5"}}, "note": "Where two headings read alike, the source gives them in different places."}
{"compound": "Cc1ccnc(S(=O)(=O)N2CC(C(=O)N3CCN(c4ccncc4)CC3)C2)c1", "note": "[7e]", "values": [{"measurement": "% ACh activity remaining", "setting": "[1]; hM1", "result": 38, "unit": "%"}]}
{"compound": "O=C(C1CN(S(=O)(=O)c2cccc3nsnc23)C1)N1CCN(c2ccncc2)CC1", "note": "[2d]", "values": [{"measurement": "fold less active / less potent than ML012", "setting": "[1]; hM1, relative to ML012", "result": 3, "unit": "fold"}]}
{"compound": "O=C(C1CN(S(=O)(=O)c2ccc(C(F)(F)F)nc2)C1)N1CCN(c2ccncc2)CC1", "note": "[7u]", "values": [{"measurement": "% ACh activity remaining", "setting": "[1]; hM1", "result": 40, "unit": "%"}]}
{"compound": "O=C(C1CN(S(=O)(=O)c2ccc3c(c2)CCO3)C1)N1CCN(c2ccncc2)CC1", "note": "[7v]", "values": [{"measurement": "fold increase in potency", "setting": "[1]; hM1, relative to ML012", "result": 8, "unit": "fold"}]}
{"compound": "O=C(CCNS(=O)(=O)c1cccc2nsnc12)N1CCN(c2ccncc2)CC1", "note": "[ML012]", "values": [{"measurement": "effect on pilocarpine-induced seizures", "setting": "[2]", "result": "reduced pilocarpine-induced seizures"}, {"measurement": "impact on contextual fear conditioning", "setting": "[3]", "result": "no negative impact on contextual fear conditioning"}]}
{"compound": "O=C(C1CN(S(=O)(=O)c2cccc3nonc23)C1)N1CCN(c2ccccn2)CC1", "note": "[(1-(Benzo[c][1,2,5]oxadiazol-4-ylsulfonyl)azetidin-3-yl)(4-(pyridin-2-yl)piperazin-1-yl)methanone]", "values": [{"measurement": "IC50", "setting": "[1]", "result": 5000, "unit": "nM"}]}
{"compound": "O=C(C1CN(S(=O)(=O)c2ccc(Cl)cn2)C1)N1CCN(c2ccncc2)CC1", "note": "[7f]", "values": [{"measurement": "% ACh activity remaining", "setting": "[1]; hM1", "result": 41, "unit": "%"}]}
{"compound": "COc1ccc(S(=O)(=O)N2CC(C(=O)N3CCN(c4ccncc4)CC3)C2)cn1", "note": "[7t]", "values": [{"measurement": "% ACh activity remaining", "setting": "[1]; hM1", "result": 20, "unit": "%"}]}
{"compound": "Brc1ccc(N2CCNCC2)nc1", "note": "[(5-bromopyridin-2-yl)piperazine]", "values": [{"measurement": "IC50", "setting": "[1]; read-out: hM1 IC50", "result": 280, "unit": "nM"}]}
{"compound": "O=C(C1CN(S(=O)(=O)c2ccc3c(c2)OCO3)C1)N1CCN(c2ccncc2)CC1", "note": "[7o]", "values": [{"measurement": "displacement of the orthosteric ligand [3H]NMS", "setting": "[4]", "result": "complete displacement"}, {"measurement": "slope of Schild regression", "setting": "[5]", "result": "0.96 ± 0.02"}]}
{"compound": "O=C(C1CN(S(=O)(=O)c2cccc3cnccc23)C1)N1CC2CN(c3ccncc3)CC2C1", "note": "(stereo not drawn) [12a]", "values": [{"measurement": "displacement of the orthosteric ligand [3H]NMS", "setting": "[4]", "result": "complete displacement"}, {"measurement": "slope of Schild regression", "setting": "[5]", "result": "0.94 ± 0.01"}, {"measurement": "predicted hepatic clearance (CLHEP)", "setting": "[6]; predicted from microsome intrinsic clearance", "result": 42.3, "unit": "mL/min/kg"}, {"measurement": "CLint scaled", "setting": "[6]; rat, hepatic microsomes", "result": 107, "unit": "mL/min/kg"}, {"measurement": "selectivity at rat M1 compared to M2-5", "setting": "[7]", "result": "selectively antagonize M1"}]}
{"compound": "CN1[C@@H]2CC[C@H]1C[C@@H](OC(=O)C(CO)c1ccccc1)C2", "note": "(stereo partly drawn) [atropine, reference compound]", "values": [{"measurement": "displacement of the orthosteric ligand [3H]NMS", "setting": "[4]", "result": "compete with [^3H]NMS binding at M1"}]}
